Measurements: patent publication US20220193066A1, “QUINOLINE DERIVATIVE USED FOR COMBINATION TREATMENT OF SMALL CELL LUNG CANCER” (CHIA TAI TIANQING PHARMACEUTICAL GROUP CO., LTD., priority 2019, published 2022)

Columns and labels:
Format in all cases: in vivo, human
[1] = system: small cell lung cancer (including ED-SCLC and LD-SCLC); assay: Clinical trial of EP or EC regimen (etoposide+cisplatin/carboplatin)+anlotinib in small cell lung cancer patients (Example 1)
Excerpt: Patients who were pathologically diagnosed with small cell lung cancer (including ED-SCLC and LD-SCLC) with measurable lesions were divided into the following groups: two combination administration groups adopting a combination of either EP or EC regimen (etoposide+cisplatin/carboplatin)+anlotinib, and a control group adopting either EP or EC alone (etoposide+cisplatin/carboplatin). The administration regimens are detailed below.
In the combination administration group, patients received etoposide: 100 mg/m^2, i.v., for 120 min, administered at d1-3 of each 21-day dosing cycle; cisplatin: 75 mg/m^2, or carboplatin: AUC 5, i.v., for 120 min, administered at d1 of each 21-day dosing cycle; anlotinib, 12 mg/day, administered orally on an empty stomach in the morning at d1-14 of each 21-day dosing cycle. After 4-6 dosing cycles of combination treatment, anlotinib was used for maintenance treatment: 12 mg/day, administered orally on an empty stomach in the morning at d1-14 of each 21-day dosing cycle until progressive disease.
In the control group, patients received etoposide: 100 mg/m^2, i.v., for 120 min, administered at d1-3 of each 21-day dosing cycle; cisplatin: 75 mg/m^2 or carboplatin: AUC 5, i.v., for 120 min, administered at d1 of each 21-day dosing cycle.
The observation indexes are as follows: primary endpoint: progression-free survival (PFS); secondary endpoint: objective response rate (ORR), overall survival (OS), disease control rate (DCR), safety, and tolerability.
The clinical trial was implemented, and 31 patients were enrolled between February 2018 and October 2019.

[2] = system: small cell lung cancer; assay: Clinical study of anlotinib in combination with irinotecan in relapsed small cell lung cancer (Example 2); settings: anlotinib hydrochloride capsule 12 mg qd po d1-14 in combination with irinotecan 60-80 mg/m^2 i.v. d1 and d8, q3w
Excerpt: Patients who have been histopathologically and cytologically diagnosed with small cell lung cancer, have previously received 1 systemic chemotherapy adopting platinum-based chemotherapy regimens, and relapsed or failed after treatment, excluding patients with non-small cell lung cancer (including small cell and non-small cell mixed types), were divided into a combination administration group and a single-drug chemotherapy control group. The administration regimens are detailed below.
Combination administration group: anlotinib hydrochloride capsule 12 mg qd po d1-14 and irinotecan 60-80 mg/m^2 i.v. d1 and d8; q3w, no more than 6 chemotherapy dosing cycles.
Single-drug chemotherapy control group: irinotecan 60-80 mg/m^2 i.v. d1 and d8; q3w, no more than 6 chemotherapy dosing cycles.
Patients who achieved complete response (CR), partial response (PR), and stable disease (SD) continued to be administered until progressive disease (PD), intolerable toxicity, or patients who required withdrawal or achieved progressive disease (PD) were discontinued. The efficacy evaluation observation indexes include progression-free survival (PFS), overall survival (OS), objective response rate (ORR), disease control rate (DCR), duration of response (DOR), quality of life score and drug safety.

[3] = system: extensive-stage small cell lung cancer; assay: Clinical study of anlotinib in combination with etoposide in extensive-stage small cell lung cancer after second-line failure (Example 3); settings: anlotinib hydrochloride capsules 12 mg qd d1-14 in combination with etoposide soft capsules 100 mg qd d1-10, 21-day cycle
Protocol: Patients with extensive-stage small cell lung cancer after the pathological diagnosis of small cell lung cancer and failure with second-line chemotherapy (having received two previous chemotherapy regimens) were administered with anlotinib in combination with etoposide.
The administration regimens are detailed below.
Etoposide soft capsules: once daily, oral administration before breakfast, 100 mg (by weight of etoposide comprised therein) each time, administered at d1-10 of each 21-day dosing cycle.
Anlotinib hydrochloride capsules: once daily, oral administration before breakfast, 12 mg each time, administered at d1-14 of each 21-day dosing cycle.
The interval between the two drugs was more than half an hour. If there was a missed dose, the interval needed to be confirmed that it was not shorter than 12 hours before the next dose, otherwise no more doses would be taken. During the administration, dosage adjustments could be made according to the degree of drug-related toxicity and possible therapeutic benefit of the patient. The dose could be adjusted to the following 2 levels for anlotinib: 10 mg and 8 mg. If a reduction of more than 2 dose levels was required, the treatment was discontinued. The dose of etoposide could be reduced to 50 mg. […]

[4] = system: small cell lung cancer; assay: Clinical study of anlotinib in combination with sintilimab in relapsed small cell lung cancer (Example 5); settings: anlotinib hydrochloride capsules 12 mg qd d1-14 in combination with sintilimab 200 mg i.v. d1, 21-day cycle
Protocol: Patients who have been histologically or cytologically confirmed pathologically diagnosed with small cell lung cancer, have previously received at least one systemic chemotherapy regimen and have relapsed were administered with anlotinib in combination with sintilimab. The administration regimens are detailed below.
Anlotinib hydrochloride capsules: once daily, oral administration before breakfast, 12 mg each time, administered at d1-14 of each 21-day dosing cycle, consecutive 2-week treatment and 1-week interruption.
Sintilimab: 200 mg, i.v. infusion, administered d1 of each 21-day dosing cycle.
All patients continued for a treatment period of up to 12 months, or until progressive disease, development of an intolerable toxic response, withdrawal of informed consent, death, or other event requiring discontinuation of treatment specified in the protocol, whichever occurred first.
The efficacy evaluation observation indexes include progression-free survival (PFS), overall survival (OS), objective response rate (ORR=CR+PR), disease control rate (DCR=CR+PR+SD) and drug safety.

[5] = anlotinib 12 mg/day in combination with EP or EC regimen, 31 patients
[6] = anlotinib 12 mg/day in combination with EP or EC regimen, of 31 patients
[7] = combination of anlotinib and EP or EC regimen

Compound: COc1cc2c(Oc3ccc4[nH]c(C)cc4c3F)ccnc2cc1OCC1(N)CC1 [anlotinib, 1-[[[4-(4-fluoro-2-methyl-1H-indol-5-yl)oxy-6-methoxyquinolin-7-yl]oxy]methyl]cyclopropylamine]
- disease control rate (DCR) [1, 5]: 100%
- objective response rate (ORR) [1, 5]: 74.2%
- patients with complete response (CR) [1, 6]: 3 patients
- patients with partial response (PR) [1, 6]: 20 patients
- patients with progressive disease (PD) [1, 6]: 0 patients
- median PFS (progression-free survival) ([1]; anlotinib 12 mg/day po d1-14 q21d in combination with EP or EC regimen (etoposide + cisplatin/carboplatin), then anlotinib maintenance, 31 patients): 8.9 months
- clinical efficacy [1, 7]: good
- safety [1, 7]: good
- clinical benefits [2]: had clinical benefits
- clinical benefits [3]: had clinical benefits
- clinical benefits [4]: had clinical benefits
- progression-free survival to date [4]: up to 6 months
